Measured values from US20100298141A1, “SUBSTITUTED PYRIDINE N-OXIDE HERBICIDES” (E. I. DU PONT DE NEMOURS AND COMPANY, priority 2007, published 2010).

Experiments:
blackgrass = experiment: Test C pre-/postemergence test; assay type: in vivo, Alopecurus myosuroides; conditions: for Plant response rating, Blackgrass: 31 g ai/ha, scale 0 to 100 (0 no effect, 100 complete control)
How it was run: (§1)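 Compounds in a non-phytotoxic solvent with surfactant applied preemergence to seeded pots and, at the same time, postemergence to plants 2–18 cm tall (1- to 4-leaf stage). Paddy tests: pots flooded to 3 cm, compound applied into the water, depth held throughout.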

green foxtail = experiment: Test C pre-/postemergence test; assay type: in vivo, Setaria viridis; conditions: for Plant response rating, Foxtail, Green: 31 g ai/ha, scale 0 to 100 (0 no effect, 100 complete control)
How it was run: as §1

crabgrass = experiment: Test A pre-/postemergence greenhouse test; assay type: in vivo, Digitaria sanguinalis; conditions: for Crabgrass, Large plant response rating: 0 to 100 scale; for Plant response rating, Crabgrass, Large: 0 to 100 scale where 0 is no effect and 100 is complete control
How it was run: (§2)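 Untreated controls served as the reference for visual injury ratings taken about ten days after spraying. The non-phytotoxic solvent/surfactant formulation was applied preemergence to seeded loam and sand and postemergence to plants two to ten cm high.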

common ragweed = experiment: Test C pre-/postemergence test; assay type: in vivo, Ambrosia elation; conditions: for Plant response rating, Ragweed: 31 g ai/ha, scale 0 to 100 (0 no effect, 100 complete control)
How it was run: as §1

redroot pigweed = experiment: Test A pre-/postemergence greenhouse test; assay type: in vivo, Amaranthus retroflexus; conditions: for Pigweed plant response rating: 0 to 100 scale; for Plant response rating, Pigweed: 0 to 100 scale where 0 is no effect and 100 is complete control
How it was run: as §2

eastern black nightshade = experiment: Test C pre-/postemergence test; assay type: in vivo, Solanum ptycanthum; conditions: for Plant response rating, Nightshade: 31 g ai/ha, scale 0 to 100 (0 no effect, 100 complete control)
How it was run: as §1

wheat = experiment: Test C pre-/postemergence test; assay type: in vivo, Triticum aestivum; conditions: for Plant response rating, Wheat: 31 g ai/ha, scale 0 to 100 (0 no effect, 100 complete control)
How it was run: as §1

yellow nutsedge = experiment: Test C pre-/postemergence test; assay type: in vivo, Cyperus esculentus; conditions: for Plant response rating, Nutsedge, Yellow: 31 g ai/ha, scale 0 to 100 (0 no effect, 100 complete control)
How it was run: as §1

Goosegrass = experiment: Test C pre-/postemergence test; assay type: in vivo, Eleusin indica; conditions: for Plant response rating, Goosegrass: 31 g ai/ha, scale 0 to 100 (0 no effect, 100 complete control)
How it was run: as §1

morningglory = experiment: Test A pre-/postemergence greenhouse test; assay type: in vivo, Ipomoea spp.; conditions: for Morningglory plant response rating: 0 to 100 scale; for Plant response rating, Morningglory: 0 to 100 scale where 0 is no effect and 100 is complete control
How it was run: as §2

duck salad = experiment: Test C flooded paddy test; assay type: in vivo, Heteranthera limosa; conditions: Flood
How it was run: (§3)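 Ratings were visual and made relative to untreated controls after 13 to 15 greenhouse days.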

wild oat = experiment: Test C pre-/postemergence test; assay type: in vivo, Avena fatua; conditions: for Plant response rating, Oat, Wild: 31 g ai/ha, scale 0 to 100 (0 no effect, 100 complete control)
How it was run: as §1

[1] = system: common (oilseed) sunflower; experiment: Test C pre-/postemergence test; assay type: in vivo, Helianthus annuus; conditions: for Plant response rating, Sunflower: 31 g ai/ha, scale 0 to 100 (0 no effect, 100 complete control)
How it was run: as §1

woolly cupgrass = experiment: Test C pre-/postemergence test; assay type: in vivo, Eriochloa villosa; conditions: for Plant response rating, Cupgrass, Woolly: 31 g ai/ha, scale 0 to 100 (0 no effect, 100 complete control)
How it was run: as §1

corn = experiment: Test C pre-/postemergence test; assay type: in vivo, Zea mays; conditions: for Plant response rating, Corn: 31 g ai/ha, scale 0 to 100 (0 no effect, 100 complete control)
How it was run: as §1

Italian ryegrass = experiment: Test C pre-/postemergence test; assay type: in vivo, Lolium multiflorum
How it was run: as §1

umbrella sedge = experiment: Test C flooded paddy test; assay type: in vivo, Cyperus difformis; conditions: Flood
How it was run: as §3

[2] = 62 g ai/ha, Preemergence, scale 0 to 100
[3] = 125 g ai/ha, preemergence, scale 0 (no effect) to 100 (complete control)
[4] = preemergence, 250 g ai/ha, scale 0 (no effect) to 100 (complete control)
[5] = Postemergence, 125 g ai/ha, 0 is no effect, 100 is complete control
[6] = Postemergence, 500 g ai/ha, 0 is no effect, 100 is complete control
[7] = Preemergence, 125 g ai/ha, 0 no effect, 100 complete control
[8] = 31 g ai/ha, scale 0 to 100 (0 no effect, 100 complete control)
[9] = 62 g ai/ha, scale 0 to 100, 0 no effect, 100 complete control, 13 to 15 days
[10] = 125 g ai/ha, scale 0 to 100, 0 no effect, 100 complete control, 13 to 15 days
[11] = 250 g ai/ha, scale 0 to 100, 0 no effect, 100 complete control, 13 to 15 days
[12] = preemergence, 125 g ai/ha, scale 0 (no effect) to 100 (complete control)

## Cn1nc(C(F)(F)F)c(C[S+]([O-])c2cc(F)cc[n+]2[O-])c1Cl (racemic) [Compound 42]
blackgrass; [2]
  Blackgrass plant response rating: 70
blackgrass; [3]
  Blackgrass plant response rating: 95
blackgrass; Preemergence
  Plant response rating, Blackgrass: 70
blackgrass; [4]
  Blackgrass plant response rating: 98
Green foxtail; [2]
  Foxtail, Green plant response rating: 100
Green foxtail; [3]
  Foxtail, Green plant response rating: 100
Green foxtail; Preemergence
  Plant response rating, Foxtail, Green: 98
Green foxtail; [4]
  Foxtail, Green plant response rating: 100
crabgrass; [5]
  Crabgrass, Large plant response rating: 80
crabgrass; [6]
  Crabgrass, Large plant response rating: 90
crabgrass; [7]
  Crabgrass, Large plant response rating: 70
crabgrass; Preemergence, 500 g ai/ha
  Plant response rating, Crabgrass, Large: 100
Common ragweed; [2]
  Ragweed plant response rating: 70
Common ragweed; [3]
  Ragweed plant response rating: 90
Common ragweed; Preemergence
  Plant response rating, Ragweed: 5
Common ragweed; [4]
  Ragweed plant response rating: 90
Redroot pigweed; [5]
  Pigweed plant response rating: 60
Redroot pigweed; [6]
  Pigweed plant response rating: 70
Redroot pigweed; [7]
  Pigweed plant response rating: 100
Redroot pigweed; Preemergence, 500 g ai/ha
  Plant response rating, Pigweed: 100
Eastern black nightshade; [2]
  Nightshade plant response rating: 80
Eastern black nightshade; [3]
  Nightshade plant response rating: 100
Eastern black nightshade; Preemergence
  Plant response rating, Nightshade: 80
Eastern black nightshade; [4]
  Nightshade plant response rating: 100
wheat; [2]
  Wheat plant response rating: 0
wheat; [3]
  Wheat plant response rating: 10
wheat; Preemergence
  Plant response rating, Wheat: 0
wheat; [4]
  Wheat plant response rating: 70
Yellow nutsedge; [2]
  Nutsedge, Yellow plant response rating: 60
Yellow nutsedge; [3]
  Nutsedge, Yellow plant response rating: 85
Yellow nutsedge; Preemergence
  Plant response rating, Nutsedge, Yellow: 0
Yellow nutsedge; [4]
  Nutsedge, Yellow plant response rating: 95
Goosegrass; [2]
  Goosegrass plant response rating: 100
Goosegrass; [3]
  Goosegrass plant response rating: 100
Goosegrass; Preemergence
  Plant response rating, Goosegrass: 85
Goosegrass; [4]
  Goosegrass plant response rating: 100
morningglory; [5]
  Morningglory plant response rating: 40
morningglory; [6]
  Morningglory plant response rating: 90
morningglory; [7]
  Morningglory plant response rating: 30
morningglory; Preemergence, 500 g ai/ha
  Plant response rating, Morningglory: 90
Duck salad; [8]
  Plant response rating, Ducksalad: 70
Duck salad; [9]
  Plant response rating, Ducksalad: 85
Duck salad; [10]
  Plant response rating, Ducksalad: 85
Duck salad; [11]
  Plant response rating, Ducksalad: 90
Wild oat; [2]
  Oat, Wild plant response rating: 5
Wild oat; [3]
  Oat, Wild plant response rating: 50
Wild oat; Preemergence
  Plant response rating, Oat, Wild: 0
Wild oat; [4]
  Oat, Wild plant response rating: 90
[1]; [2]
  Sunflower plant response rating: 0
[1]; [3]
  Sunflower plant response rating: 30
[1]; Preemergence
  Plant response rating, Sunflower: 0
[1]; [4]
  Sunflower plant response rating: 80
Woolly cupgrass; [2]
  Cupgrass, Woolly plant response rating: 55
Woolly cupgrass; [3]
  Cupgrass, Woolly plant response rating: 85
Woolly cupgrass; Preemergence
  Plant response rating, Cupgrass, Woolly: 35
Woolly cupgrass; [4]
  Cupgrass, Woolly plant response rating: 90
corn; [2]
  Corn plant response rating: 25
corn; [3]
  Corn plant response rating: 60
corn; Preemergence
  Plant response rating, Corn: 0
corn; [4]
  Corn plant response rating: 80
Italian ryegrass; [2]
  Ryegrass, Italian plant response rating: 55
Italian ryegrass; [3]
  Ryegrass, Italian plant response rating: 80
Italian ryegrass; [4]
  Ryegrass, Italian plant response rating: 85
Umbrella sedge; [8]
  Plant response rating, Sedge, Umbrella: 80
Umbrella sedge; [9]
  Plant response rating, Sedge, Umbrella: 85
Umbrella sedge; [10]
  Plant response rating, Sedge, Umbrella: 90
Umbrella sedge; [11]
  Plant response rating, Sedge, Umbrella: 95

## Cn1nc(C(F)(F)F)c(C[S+]([O-])c2cc(C(F)(F)F)cc[n+]2[O-])c1Cl (racemic) [Compound 34]
blackgrass; [2]
  Blackgrass plant response rating: 30
blackgrass; Preemergence
  Plant response rating, Blackgrass: 30
blackgrass; Preemergence, 250 g ai/ha
  Plant response rating (0 to 100), Blackgrass: 65
blackgrass; [12]
  Blackgrass plant response rating: 50
Green foxtail; [2]
  Foxtail, Green plant response rating: 50
Green foxtail; Preemergence
  Plant response rating, Foxtail, Green: 10
Green foxtail; Preemergence, 250 g ai/ha
  Plant response rating (0 to 100), Foxtail, Green: 100
crabgrass; [5]
  Crabgrass, Large plant response rating: 10
crabgrass; [6]
  Crabgrass, Large plant response rating: 70
crabgrass; [7]
  Crabgrass, Large plant response rating: 60
crabgrass; Preemergence, 500 g ai/ha
  Plant response rating, Crabgrass, Large: 70
Common ragweed; [2]
  Ragweed plant response rating: 45
Common ragweed; Preemergence
  Plant response rating, Ragweed: 45
Redroot pigweed; [5]
  Pigweed plant response rating: 60
Redroot pigweed; [6]
  Pigweed plant response rating: 70
Redroot pigweed; [7]
  Pigweed plant response rating: 100
Redroot pigweed; Preemergence, 500 g ai/ha
  Plant response rating, Pigweed: 100
Eastern black nightshade; [2]
  Nightshade plant response rating: 100
Eastern black nightshade; Preemergence
  Plant response rating, Nightshade: 85
wheat; [2]
  Wheat plant response rating: 10
wheat; Preemergence
  Plant response rating, Wheat: 0
Yellow nutsedge; [2]
  Nutsedge, Yellow plant response rating: 70
Yellow nutsedge; Preemergence
  Plant response rating, Nutsedge, Yellow: 70
Goosegrass; [2]
  Goosegrass plant response rating: 98
Goosegrass; Preemergence
  Plant response rating, Goosegrass: 98
Goosegrass; Preemergence, 250 g ai/ha
  Plant response rating (0 to 100), Goosegrass: 100
morningglory; [5]
  Morningglory plant response rating: 0
morningglory; [6]
  Morningglory plant response rating: 30
morningglory; [7]
  Morningglory plant response rating: 50
morningglory; Preemergence, 500 g ai/ha
  Plant response rating, Morningglory: 80
Duck salad; [8]
  Plant response rating, Ducksalad: 0
Duck salad; [9]
  Plant response rating, Ducksalad: 75
Duck salad; [10]
  Plant response rating, Ducksalad: 80
Duck salad; [11]
  Plant response rating, Ducksalad: 85
Wild oat; [2]
  Oat, Wild plant response rating: 40
Wild oat; Preemergence
  Plant response rating, Oat, Wild: 0
[1]; [2]
  Sunflower plant response rating: 0
[1]; Preemergence
  Plant response rating, Sunflower: 0
Woolly cupgrass; [2]
  Cupgrass, Woolly plant response rating: 35
Woolly cupgrass; Preemergence
  Plant response rating, Cupgrass, Woolly: 35
Woolly cupgrass; Preemergence, 250 g ai/ha
  Plant response rating (0 to 100), Cupgrass, Woolly: 75
corn; [2]
  Corn plant response rating: 0
corn; Preemergence
  Plant response rating, Corn: 0
corn; Preemergence, 250 g ai/ha
  Plant response rating (0 to 100), Corn: 20
corn; [12]
  Corn plant response rating: 5
Italian ryegrass; [2]
  Ryegrass, Italian plant response rating: 0
Italian ryegrass; Preemergence, 31 g ai/ha, scale 0 to 100 (0 no effect, 100 complete control)
  Plant response rating, Ryegrass, Italian: 0
Umbrella sedge; [8]
  Plant response rating, Sedge, Umbrella: 0
Umbrella sedge; [9]
  Plant response rating, Sedge, Umbrella: 85
Umbrella sedge; [10]
  Plant response rating, Sedge, Umbrella: 85
Umbrella sedge; [11]
  Plant response rating, Sedge, Umbrella: 90
